Measurements reported in PMC12766730, “Controlled Self-Immolative Release of β‑Lapachone via an Optimized para-Hydroxybenzyl Linker for Targeted Pancreatic Cancer Therapy” (Journal of the American Chemical Society, 2025).
Like-named read-outs stand apart in the source and are kept apart here. Values belong to the compound of their own block, whether it stands above or below them.

Key:
[1] = HPLC stability assay of prodrugs in buffers pH 3, 5, 7, 7.4 (PBS), 9 at 37 °C for 72 h without trigger; type: physicochemical; details: 37 °C, 72 h, pH 3–9
Description: The diastereomeric mixture of each β-glucuronide–PHB-β-lapachone prodrug (16a–j) and PAB derivative 22 were then tested for stability in citrate-phosphate buffers across a range of pHs (3, 5, 7, 7.4 (PBS), 9) via an HPLC stability assay. For derivatives 16a, 16b, 16d, 16e, 16h, and 16j, when no β-glucuronidase enzyme was added, both diastereomers of 16 were fully stable at 37 °C for 72 h (Figures a,d, S63, S64, S66–68, S71, and S73). […] This premature release was greatest at acidic pH 3 for 16g, with very minimal lapachone release detected at pH 5–9 (Figure c). The released lapachone was quantified and compared to the starting concentration of each prodrug to calculate the percent of the prodrug that had been prematurely released (Figures f,g, S76). […] Therefore, a trade-off exists between ring activation, improving the release rate from 3 while also decreasing prodrug stability, and it rendered 16g clinically disadvantageous.  5 Stability of prodrugs is pH dependent. The representative HPLC traces for (a) a stable prodrug 16a and (b) an unstable prodrug 16g are shown after incubation at 37 °C in pH 7.4 PBS buffer. […] (c) The area of the lapachone peak for 16g normalized to the IS was plotted, displaying substantial growth over time at pH 3. […] For panels c–g, each value is plotted as the mean ± SD of three replicates. The HPLC traces (Figures S50–S62) and peak area graphs (Figures S63–S75) for all other derivatives can be found in the Supporting Information. The stability of 26 was also evaluated from pH 3–9 (Figures d,f–h S86–S87). […] This degradation was the largest at pH 9, with a measurable decrease in the prodrug peak area after 72 h (Figure g). The lapachone released after 72 h was quantified using a standard curve (Tables S6.1–S6.2). At pH 3 and 5, approximately 0.2% of the total prodrug lapachone had been released.

PANC-1 [2] = experiment: PDAC cell viability after 72 h of treatment, PANC-1; type: cell-based; details: Homo sapiens, PANC-1, exogenous β-glucuronidase added
Description: (§1) All ortho-quinone prodrug derivatives were tested on two pancreatic cancer cell lines, PANC-1 and AsPC-1, to assess efficacy in cell killing (Figures , S88–89, S91, Tables , and S8.1). Exogenous β-glucuronidase was added to the cell media to mimic the extracellular enzyme present in the TME. […] Those derivatives with release rates slower than that of 16a, like 16e, had less efficacy in cells comparatively (Table ).
(§2) 7 PDAC cell viability with prodrug treatment. Representative PANC-1 (a) and AsPC-1 (b) cell viability data of four β-lapachone prodrug derivatives after 72 h of treatment with exogenous β-glucuronidase added. Panels (c, d) show the toxicity of functional prodrugs up to 100 μM in PANC-1 (c) and AsPC-1 (d) cells without exogenous β-glucuronidase enzyme present after 72 h incubation.
(§3) To assess the TW of the prodrug derivatives, we tested each of them in both the PANC-1 and AsPC-1 cell lines at up to 100 μM without the β-glucuronidase enzyme present. In agreement with the HPLC stability assay data, we saw no toxicity in all stable prodrug derivatives up to this concentration (Figure c,d). […] In comparison, all the stable glucuronide prodrug derivatives retained 100% viability at 100 μM. […] It is generally considered that a drug has a good therapeutic safety profile if the TI is greater than 10, which our best derivatives far exceed, signaling that our prodrug is safe to deliver systemically in future in vivo experiments and should not cause any adverse effects in areas where β-glucuronidase is not overexpressed. ,

AsPC-1 [3] = experiment: PDAC cell viability after 72 h of treatment, AsPC-1; type: cell-based; details: Homo sapiens, ASPC1, exogenous β-glucuronidase added, average ± SD of biological replicates, read-out: AsPC-1 IC50
Description: as §1, §2, §3

PANC-1 [4] = experiment: Reactive oxygen species generation after 24 h treatment, PANC-1; type: cell-based
Text: (§4) 8 Target expression, ROS production, and quinone methide toxicity in PDAC Cell Lines. […] The A549 cell line was used as a positive control for NQO1 enzyme expression, and the HL-60 cell line was used as a positive control for 5-LO enzyme expression. For β-glucuronidase expression, two consecutive technical replicates are shown for each biological replicate, with all three biological replicates represented for both cell lines. […] Results were normalized to baseline cellular ROS activity as 0 and positive control tert-butyl hydrogen peroxide (TBHP) as 100. Adjusted p-values of 0.0012 (**) and <0.0001 (****) are shown for statistically significant comparisons.

AsPC-1 [5] = experiment: Reactive oxygen species generation after 24 h treatment, AsPC-1; type: cell-based
Text: as §4

[6] = HPLC stability assay of prodrugs in buffers pH 3, 5, 7, 7.4 (PBS), 9 at 37 °C for 72 h without trigger; type: physicochemical; details: after dilution into aqueous buffer
[7] = set-up: method as in Gong et al.; details: pH 7.4; 5 equiv H2O2; ref Gong et al.; cited from earlier work
[8] = set-up: method as in Dunsmore et al.; details: k obs of compound 4 previously reported, ref Dunsmore et al., cited from earlier work
[9] = no extracellular enzyme, compared to β-lapachone

stability of the prodrug without triggering enzyme [1]: trace β-lapachone release was detected
IC50 (PANC-1 [2]; average ± SD of biological replicates, read-out: PANC-1 IC50): 0.7 ± 0.2 µM
IC50 (PANC-1 [2]; representative experiment, read-out: IC50 on PANC-1, representative viability data (Figure 7a)): 0.6 µM
IC50 (AsPC-1 [3]): 2.9 ± 0.06 µM
ROS generation with β-glucuronidase (PANC-1 [4]; β-glucuronidase added): restored generation of ROS
ROS generation with β-glucuronidase (AsPC-1 [5]; β-glucuronidase added): restored generation of ROS
Compound: COc1cc(O[C@@H]2O[C@H](C(=O)O)[C@@H](O)[C@H](O)[C@H]2O)ccc1CC1(O)C(=O)C2=C(OC(C)(C)CC2)c2ccccc21 (mixture of isomers) [16f]
ROS generation without β-glucuronidase (PANC-1 [4]; [9]): significantly less ROS than β-lapachone alone
ROS generation without β-glucuronidase (AsPC-1 [5]; [9]): significantly less ROS than β-lapachone alone

time to complete hydrolysis into boronic acid 26 [6]: ≤ 5 min
Compound: CC1(C)CCC2=C(O1)c1ccccc1C(O)(Cc1ccc(B3OC(C)(C)C(C)(C)O3)cc1)C2=O (stereo not drawn) [compound 24]
time to complete release of 1 [7]: ≤ 2 h

Compound: CC1(C)CCC2=C(O1)c1ccccc1C(O)(Cc1ccc(N)cc1)C2=O (stereo not drawn) [compound 4]
half-life of quinone release at pH 5 ([8]; pH 5): 101 ± 7 h
t 1/2 at pH 6 (drug release half-life) ([8]; pH 6): 931 h
